Measured values as given in PubChem BioAssay (NCI).
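48-hour exposure; five concentrations; linearly interpolated endpoints. GI50 is the concentration that inhibits growth by half. TGI marks complete inhibition of growth.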

Tests used:
Experiment in all cases: DTP human tumour cell line panel, 48 h
SW-620 colon = tested on: SW-620 colon
SK-MEL-28 melanoma = tested on: SK-MEL-28 melanoma
SK-MEL-5 melanoma = tested on: SK-MEL-5 melanoma
SF-268 CNS = tested on: SF-268 CNS
OVCAR-4 ovarian = tested on: OVCAR-4 ovarian
LOX IMVI melanoma = tested on: LOX IMVI melanoma
NCI-H23 lung = tested on: NCI-H23 lung
HCT-15 colon = tested on: HCT-15 colon
CCRF-CEM leukemia = tested on: CCRF-CEM leukemia
RPMI-8226 leukemia = tested on: RPMI-8226 leukemia

SMILES | GI50 (SW-620 colon) [µM] | TGI (SW-620 colon) [µM] | GI50 (SK-MEL-28 melanoma) [µM] | TGI (SK-MEL-28 melanoma) [µM] | GI50 (SK-MEL-5 melanoma) [µM] | TGI (SK-MEL-5 melanoma) [µM] | GI50 (SF-268 CNS) [µM] | TGI (SF-268 CNS) [µM] | GI50 (OVCAR-4 ovarian) [µM] | TGI (OVCAR-4 ovarian) [µM] | GI50 (LOX IMVI melanoma) [nM] | TGI (LOX IMVI melanoma) [µM] | GI50 (NCI-H23 lung) [µM] | TGI (NCI-H23 lung) [µM] | GI50 (HCT-15 colon) [µM] | TGI (HCT-15 colon) [µM] | GI50 (CCRF-CEM leukemia) [µM] | TGI (CCRF-CEM leukemia) [µM] | GI50 (RPMI-8226 leukemia) [µM] | TGI (RPMI-8226 leukemia) [µM]
c1cc(CNC23CC4CC(CC(C4)C2)C3)cc(C[N+](Cc2cccc(CNC34CC5CC(CC(C5)C3)C4)c2)(Cc2cccc(CNC34CC5CC(CC(C5)C3)C4)c2)Cc2cccc(CNC34CC5CC(CC(C5)C3)C4)c2)c1 (stereo unspecified) | 5.23 | 16.5 | 6.94 | 33.1 | 6.36 | 26.3 | 6.39 | 22.6 | 4.85 | 22.8 | 2110 | 5.3 | 6.38 | 26.6 | 4.59 | 16.4 | 6.1 | 209 | 5.51 | 16.7
COC(=O)C1=CNC=C(C(=O)OC)C1C1=CC(=O)C(C)=CC1=O | 8.43 | 22.2 | 24.3 | > 59.6 | 20.7 | 43.7 | 9.82 | 24.6 | 20.7 | 61.7 | 14000 | 28.6 | 16.5 | 31 | 17 | 32.6 | 4.3 |  | 2.9 | 7.5
O=C(N/N=C/c1ccc(Cl)cc1)c1ccc(C(F)(F)F)nc1Nc1cccc(C(F)(F)F)c1 | 1.45 | 10.4 | 2.54 | 10.3 | 1.46 | 3.55 | 1.14 | 8.29 | 0.736 | 15.2 | 1300 | 8 | 2.31 | 8.74 | 0.855 | 12.2 | 0.344 | 3.62 | 1.53 | 
CN1C/C=C\CCOc2cccc(c2)-c2ccnc(n2)Nc2cccc(c2)C1 | 0.0439 | 4.49 | 0.0641 | 0.451 | 0.0502 | 0.205 | 0.0561 | 0.548 | 0.113 | 1.88 | 34.3 | 1.06 | 0.0717 | 0.599 | 0.0435 | 1.96 | 0.0349 | 1.04 | 0.0804 | 0.318
CCOC(=O)[C@@H](N)CCC(=O)N[C@@H](CSCc1ccccc1)C(=O)N[C@@H](C(=O)OCC)c1ccccc1 | 20.7 | 49.2 | 16.7 | 31.7 | 14.2 | 27.5 | 16.6 | 31.3 | 27.5 | > 57.1 | 16700 | 32.1 | 18.8 | 40.9 | 33.7 | > 71.2 | 21.8 | > 67.7 | 17.8 | 45.1
COc1cc2c(cc1OC)C(CC(=O)NN=C(C)C)NCC2 (stereo unspecified) |  | > 100 |  | > 100 |  | > 100 |  | > 100 |  | > 100 |  | > 100 |  | > 100 |  | > 100 |  | > 100 |  | > 100
COC(=O)[C@H](C)NC(=O)NC(=O)NC(=O)CI | 16.5 | 34.4 | 14.4 | 29.9 | 17.6 | 31.8 | 17.2 | 36.3 | 11.6 | 24.4 | 2270 | 5.97 | 16.8 | 36.9 | 5.26 | 18 | 2.03 | 4.44 | 3.64 | 18.3
N#CCN1C(=O)c2cccc3cc([N+](=O)[O-])cc(c23)C1=O |  | > 100 |  | > 100 |  | > 100 |  | > 100 |  | > 100 |  | 66.8 |  | > 100 |  | > 100 |  | > 100 |  | > 100
COc1cc2ncnc(Nc3ccc(C)c(O)c3)c2cc1OC | > 25 | > 25 | > 25 | > 25 | > 25 | > 25 | > 19.2 | > 25 | 9.91 | > 25 | 10300 | > 25 | > 25 | > 25 | 14.1 | > 25 | > 25 | > 25 | > 25 | > 25
Oc1ccccc1C(Sc1nc2ccccc2s1)Sc1nc2ccccc2s1 |  | > 100 |  | > 100 |  | > 100 |  | > 100 |  | > 100 |  | > 100 |  | > 100 |  | > 100 |  | > 100 |  | > 100
CN1c2ccc(Cl)cc2C(=O)NC1c1ccc([N+](=O)[O-])s1 (stereo unspecified) |  | > 100 |  | 43.7 |  | 31.6 |  | 21.5 |  | 71.5 |  | 28.8 |  |  |  | 35.9 |  | > 100 |  | 26.7
COc1ccc(/C=C/c2ccnc3ccccc23)c(OC)c1 |  | > 10 |  | > 10 |  | > 10 |  | > 10 |  | > 10 |  | > 10 |  |  |  | > 10 |  | > 10 |  | > 10
